Calls of active or inactive are those of the source. The calls are words filed in the database; no cut-off is given here.

This note sets out measurements from ChEMBL document CHEMBL1177825, “Subtype-selectivity of metal-dependent methionine aminopeptidase inhibitors” (Bioorg Med Chem Lett, 2010).

Assay [1] is described as follows: Inhibition of Escherichia coli MetAP.
A further assay concerns Staphylococcus aureus. Put plainly: Inhibition of Staphylococcus aureus MetAP at 25 uM.
A short description of assay [2]: Inhibition of Staphylococcus aureus MetAP.
The target of assay [3] is Methionine aminopeptidase 2 (Homo sapiens, UniProt P50579). Put plainly: Inhibition of human MetAP2 expressed in baculovirus infected Sf9 cells.
Chain of Methionine aminopeptidase 2 (P50579 whole entry): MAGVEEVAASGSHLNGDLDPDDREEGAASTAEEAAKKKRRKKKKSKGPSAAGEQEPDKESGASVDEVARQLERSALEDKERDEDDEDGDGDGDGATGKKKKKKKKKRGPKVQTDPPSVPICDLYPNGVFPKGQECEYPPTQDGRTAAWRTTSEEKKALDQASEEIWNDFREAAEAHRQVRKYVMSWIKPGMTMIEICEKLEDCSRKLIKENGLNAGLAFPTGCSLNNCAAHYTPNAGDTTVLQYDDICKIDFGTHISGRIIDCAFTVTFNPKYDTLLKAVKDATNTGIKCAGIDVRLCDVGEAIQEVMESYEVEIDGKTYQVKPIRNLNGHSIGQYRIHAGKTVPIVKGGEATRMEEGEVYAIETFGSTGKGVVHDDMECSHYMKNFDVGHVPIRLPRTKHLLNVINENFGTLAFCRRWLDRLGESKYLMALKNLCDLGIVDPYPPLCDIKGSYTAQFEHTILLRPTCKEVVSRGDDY
For a further assay, the system named is Escherichia coli. Nature of the assay: Inhibition of Escherichia coli MetAP at 25 uM.
Assay [4] addresses Methionine aminopeptidase 1 (Homo sapiens, UniProt P53582). Nature of the assay: Inhibition of human MetAP1.

A word on the IC50: it is the concentration needed to halve the response being measured. The low end stands for greater potency, the high end for weaker potency. As a reminder, the inhibition is the percentage by which the read-out fell short of the control. As to `Oc1cccnc1-c1nc2ccccc2[nH]1`, the IC50 in assay [1] is 780 nM; in assay [2], 4.4 µM. This molecule also returned an inhibition in the assay with Staphylococcus aureus of 97%.
With `Oc1cccc(-c2nc3ccccc3[nH]2)n1`, the IC50 came out at 1300 nM in assay [1] and 29.2 µM in assay [2]. Moreover, the inhibition in the assay on Staphylococcus aureus was 47%.
`Cc1ccc2[nH]c(-c3ccccn3)nc2c1`: the concentration for half-maximal inhibition (IC50) in assay [3] worked out at 7.7 µM. That is a single-digit micromolar value.
`c1cncc(-c2nc3ccccc3[nH]2)c1`: the inhibition result in the assay on Escherichia coli was “inactive”. The inhibition in the assay on Staphylococcus aureus is 20%.
With `Cc1ccc2nc(-c3ccccn3)[nH]c2c1`, the 50% inhibitory concentration (IC50) in assay [1] worked out at 2100 nM; in assay [2], 19.4 µM. In addition, the inhibition in the assay with Staphylococcus aureus stood at 68%.
Regarding `Oc1ccccc1-c1nc2ccccc2[nH]1`, the inhibition came to 66% in the assay with Escherichia coli and 12% in the assay with Staphylococcus aureus.
Molecule `O=S(=O)(Nc1nccs1)c1ccccn1` returned an inhibition in the assay on Escherichia coli of 23%.
`CC(C)(C)c1ccc2[nH]c(-c3cscn3)nc2c1`: the IC50 in assay [1] was 3900 nM; in assay [2], 41.7 µM. This molecule returned an inhibition with Staphylococcus aureus of 30.2%.
With `c1coc(-c2nc3ccccc3[nH]2)c1`, the inhibition in the assay on Escherichia coli is 26%; in the assay on Staphylococcus aureus, 10%.
Turning to `CC(C)(C)c1ccc2[nH]c(-c3ccccn3)nc2c1`, the IC50 turned out to be 2600 nM in assay [1] and 38.9 µM in assay [2]. For the same molecule, in the assay on Staphylococcus aureus, the inhibition stood at 40.9%.
In the case of `O=C(Nc1nccs1)c1ccc([N+](=O)[O-])cc1`, the inhibition entry in the assay with Escherichia coli and in the assay on Staphylococcus aureus was “inactive” in each case.
With `Oc1cccc2cccnc12` [OXYQUINOLINE], the inhibition in the assay with Escherichia coli came out at 95%; in the assay on Staphylococcus aureus, 65%. For the same molecule, the IC50 stood at 770 nM in assay [1], 18.3 µM in assay [2], 21.5 µM in assay [4] and 5.6 µM in assay [3].
For the molecule `O=S(=O)(Nc1cccc2cccnc12)c1ccccc1`, the inhibition in the assay with Escherichia coli is 93%; in the assay on Staphylococcus aureus it was 47%. In addition, the figures for the IC50 in assay [1], in assay [2] and in assay [3] were 11000 nM, 22.9 µM and 39.8 µM, respectively.
On to `c1ccc(-c2nc3ncc[nH]c-3n2)nc1`, for which the IC50 stood at 240 nM in assay [1] and 22 µM in assay [2]. Also, in the assay with Staphylococcus aureus, the inhibition is 51%.
In turn, `Clc1ccc2nc(-c3ccccn3)[nH]c2c1` gave an IC50 in assay [1] of 1700 nM. Further, in the assay on Staphylococcus aureus, the inhibition was 16%.
As to `Cc1cc2nc(-c3ccccn3)[nH]c2cc1C`, the IC50 came out at 2400 nM in assay [1] and 17.9 µM in assay [2]. In the assay on Staphylococcus aureus, this molecule had an inhibition of 87%.
As for `c1ccc2[nH]c(-c3cscn3)nc2c1` [THIABENDAZOLE], the inhibition in the assay on Escherichia coli stood at 86.3%; with Staphylococcus aureus it was 28%. Also, the IC50 was determined as 470 nM in assay [1], 47.8 µM in assay [4] and 44.7 µM in assay [3].
On to `c1csc(-c2nc3ccccc3[nH]2)c1`, for which the inhibition result with Escherichia coli and with Staphylococcus aureus was “inactive” each time.
As for `COC(=O)Nc1nc2cc(Sc3ccccc3)ccc2[nH]1`, in the assay on Escherichia coli, the inhibition entry was “inactive”. Further, the inhibition in the assay on Staphylococcus aureus was found to be 12.5%.
As to `Cc1cc(NC(=O)c2ccccn2)no1`, the inhibition turned out to be 80% in the assay on Escherichia coli and 20% in the assay with Staphylococcus aureus. In assay [1], this molecule yielded a half-inhibitory concentration (IC50) of 2800 nM.
Take `c1ccc(-c2nc3cc[nH]cc-3n2)nc1`: the IC50 in assay [1] came out at 550 nM; in assay [2], 22.8 µM. Also, in the assay on Staphylococcus aureus, the inhibition was 55%.
On to `c1ccc2[nH]c(Nc3nccs3)nc2c1`, for which the figures for the IC50 in assay [1] and in assay [2] were 540 nM and 22.4 µM, respectively. The same molecule came in with an inhibition in the assay on Staphylococcus aureus of 52%.
Take `Clc1ccc2[nH]c(-c3cscn3)nc2c1`: in assay [1], the IC50 was 5200 nM. Besides, the inhibition in the assay on Staphylococcus aureus was determined as 15%.
Turning to `c1ccc(-c2nc3ccccc3[nH]2)nc1`, the IC50 in assay [1] was 570 nM; in assay [2], 19.9 µM; in assay [4], 28.4 µM; in assay [3], 13.3 µM. Besides, the inhibition in the assay on Staphylococcus aureus turned out to be 56%.
Regarding `O=C(Oc1cccc2cccnc12)c1ccccc1` [BENZOXIQUINE], the inhibition with Escherichia coli came to 32%; in the assay with Staphylococcus aureus, 10%. In addition, in assay [3], the IC50 came out at 34.8 µM.
The molecule `O=S(=O)(Oc1cccc2cccnc12)c1ccccn1` showed an inhibition in the assay on Escherichia coli of 38%. In the assay on Staphylococcus aureus, the inhibition entry is “inactive”.
Turning to `N/C(S)=N/c1nc2ccccc2[nH]1`, the figures for the IC50 in assay [1] and in assay [2] were 9000 nM and 35.9 µM, respectively. In addition, in the assay with Staphylococcus aureus, the inhibition turned out to be 31%.
With `Nc1ccc2nc(-c3ccccn3)[nH]c2c1`, the IC50 in assay [3] is 9.3 µM.
As for `COC(=O)Nc1nc2cc(C(=O)c3ccccc3)ccc2[nH]1`, the inhibition with Escherichia coli came out at 47%. For the same molecule, in the assay with Staphylococcus aureus, the inhibition entry was “inactive”.
In the case of `c1ccc(Cn2c(-c3ccccn3)nc3ccccc32)cc1`, the IC50 in assay [1] turned out to be 990 nM. Further, in the assay on Staphylococcus aureus, the inhibition entry is “inactive”.
In the case of `O=[N+]([O-])c1ccc2[nH]c(-c3ccccn3)nc2c1`, the IC50 in assay [1] stood at 160 nM; in assay [4] it was 28.8 µM. Moreover, the inhibition result in the assay on Staphylococcus aureus was “inactive”.
With `c1cnc2nc(-c3nccs3)[nH]c2c1`, the IC50 in assay [1] is 80 nM. The molecule also returned an inhibition in the assay on Staphylococcus aureus of 21%.
For the molecule `O=[N+]([O-])c1ccc2nc(-c3cscn3)[nH]c2c1`, the IC50 in assay [4] was found to be 48.5 µM.
On to `Fc1ccc2nc(-c3ccccn3)[nH]c2c1`, for which the IC50 in assay [1] stood at 1500 nM; in assay [2], 40.1 µM. In addition, the inhibition in the assay on Staphylococcus aureus amounted to 31%.
As to `c1cc2[nH]c(-c3cscn3)nc2cn1`, the IC50 in assay [1] was 1700 nM; in assay [2] it was 45.5 µM. This molecule also had an inhibition in the assay on Staphylococcus aureus of 32%.
Regarding `c1ccc(-c2nc3ccc[nH]c-3n2)nc1`, the values for the IC50 in assay [1] and in assay [2] were 110 nM and 18.8 µM, respectively. In the assay on Staphylococcus aureus, this molecule returned an inhibition of 76%.
Molecule `Cc1cc2nc(-c3cscn3)[nH]c2cc1C` came in with an IC50 in assay [1] of 10000 nM. The inhibition with Staphylococcus aureus was found to be 17%.
Take `N#Cc1ccc2[nH]c(-c3ccccn3)nc2c1`: the IC50 in assay [1] was 430 nM; in assay [2], 33 µM. In the assay on Staphylococcus aureus, the inhibition was 29%.
On to `O=C(Nc1nccs1)c1ccccn1`, for which the inhibition came to 100% in the assay with Escherichia coli and 58% in the assay with Staphylococcus aureus. Further, the IC50 in assay [1] was 60 nM; in assay [2] it was 21.2 µM; in assay [4], 8.1 µM; in assay [3], 25.8 µM.
For the molecule `Nc1ccc2[nH]c(-c3ccccn3)nc2c1`, the IC50 in assay [1] came out at 970 nM; in assay [2] it was 4.9 µM. This molecule also displayed an inhibition in the assay on Staphylococcus aureus of 92%.
For the molecule `c1cc2nc(-c3cscn3)[nH]c2cn1`, in assay [4], the half-inhibitory concentration (IC50) was 19 µM.
Regarding `Cc1ccc(S(=O)(=O)Oc2cccc3cccnc23)cc1`, the inhibition result with Escherichia coli and with Staphylococcus aureus was “inactive” each time.
Take `c1ccc(-c2nc3c[nH]cnc-3n2)nc1`: it took 380 nM to reach half-maximal inhibition in assay [1] (IC50). This molecule also registered an inhibition in the assay with Staphylococcus aureus of 18%.
In the case of `O=C(Nc1cccc2cccnc12)c1ccccc1`, the inhibition result with Escherichia coli and in the assay with Staphylococcus aureus was “inactive” throughout.
For `CCCSc1ccc2[nH]c(NC(=O)OC)nc2c1`, the inhibition in the assay with Escherichia coli was 35%; in the assay with Staphylococcus aureus, 10.5%.
In the case of `Nc1ccc2[nH]c(-c3cscn3)nc2c1`, the half-inhibitory concentration (IC50) was determined as 3400 nM in assay [1] and 2.3 µM in assay [2]. The same molecule gave an inhibition in the assay with Staphylococcus aureus of 92%.
Take `COC(=O)Nc1nc2ccccc2[nH]1`: the inhibition in the assay with Escherichia coli amounted to 34%. The inhibition entry in the assay on Staphylococcus aureus is “inactive”.
`O=S(=O)(Oc1cccc2cccnc12)c1ccccc1`: in the assay on Escherichia coli, the inhibition result was “inactive”. Further, in the assay with Staphylococcus aureus, the inhibition was 62%. In addition, in assay [2], 16 µM corresponded to half-maximal inhibition (IC50).
Take `Cc1cc(NS(=O)(=O)c2ccccn2)no1`: in the assay with Escherichia coli, the inhibition is 21%. For the same molecule, in the assay with Staphylococcus aureus, the inhibition result is “inactive”.
The molecule `c1ccc2[nH]c(-c3cnccn3)nc2c1` gave an IC50 in assay [1] of 4600 nM. The inhibition entry with Staphylococcus aureus was “inactive”.
